Data reported in patent US7087584B2, “Detection and modulation of IAPs and NAIP for the diagnosis and treatment of proliferative disease” (Aegera Therapeutics Inc., priority 1997, dated 2006).

What was measured:
[1] = tested on: Cisplatin-sensitive (OV2008) human ovarian epithelial cells; assay: Apoptosis (nuclear staining, DNA ladders, TUNEL) in cisplatin-sensitive ovarian cancer cells; assay type: cell-based; details: for incidence of apoptosis: cisplatin 0-30 μM or taxol 0-1.0 μM, up to 48 hours
Protocol: (§1) Cisplatin-sensitive (OV2008) and -resistant (C13) human ovarian epithelial cells were cultured in a chemically-defined medium at 37° C. for up to 48 hours in the presence or absence of TGFβ (20 ng/ml), taxol (0–1.0 μM) or cisplatin (0–30 μM). At the end of the culture period, cells were either fixed for immunocytochemistry and TUNEL analyses, or snap frozen for subsequent extraction for IAP mRNA and proteins analyses.
(§2) Human ovarian epithelial cancer cells were fixed (4% formalin in PBS; 10 min. RT), washed in PBS, resuspended in Hoescht 33248 stain (0.1 μg/ml PBS, 10 min) washed again and spotted onto slides for microscopy. Nuclear staining was observed and photographed using a Zeiss fluorescent microscope equipped with an FITC filter. Apoptotic cells were identified by typical nuclear morphology, and counted using randomly selected fields and numbered photographic slides to avoid bias during counting.
(§3) Cellular DNA was extracted using the Qiagen Blood Amt kit. DNA was quantified by ethidium bromide fluorescence. DNA (0.5 μg) was then end labelled by incubating (20 min, RT) with Klenow enzyme (2 U in 10 mM Tris+5 mM MgCl2) and 0.1 μCi [α32P]dCTP. Unincorporated nucleotides were removed with the Qiagen nucleotide removal kit and samples were resolved by Tris-acetate-EDTA agarose (1.8%) gel electrophoresis. The gel was then dried (2 hr, no heat) and exposed to a Bio-Rad phosphoimager screen to densitometrically quantify low molecular weight DNA (<15 kBp) and subsequently to x-ray film at −80° C.
To identify cell death using the in situ cell death detection kit (Boehringer-Mannheim), slides prepared for histology were treated (20 min. 37° C.) with terminal tranferase in the presence of FITC-conjugated dUTP.

[2] = tested on: HIAP-2 mRNA in C13 cells; assay: Northern blot for HIAP-2 mRNA in C13 cells; assay type: cell-based, human
Protocol: as §1
(§4) Total RNA from ovarian surface epithelial cancer cells by using RNeasy Kit (Qiagen). The RNA samples (10–15 μg) were quantified spectrophotometrically and size-fractioned by electrophoresis on formaldehyde-agarose gels (1.1%) containing 1 μg/ml ethidium bromide to confirm even loading of RNA samples and adequate separation of 28S and 18S ribosomal bands. The RNAs bands were blotted onto a nylon membrane and cross-linked by UV light. Membranes were prehybridized in 50% formamide, saline sodium citrate (SSC; 750 mM NaCl, 75 mM Na citrate), 1×Denhardt's solution, 1% SDS, 4 mM EDTA and 100 μg/ml sheared salmon sperm DNA for 4 h at 42° C. Hybridization was performed overnight at 42° C. with 20 million cpm of ^32P-labelled IAP cDNA probes (rat Naip, rat Xiap or human Hiap-2) added to the prehybridization buffer. […] Data were normalized by the respective 28S and expressed as a percentage of the control (defined as 100%).

[3] = tested on: XIAP protein in C13 cells; assay: Western blot for XIAP protein in C13 cells; assay type: cell-based, human
Protocol: as §1
(§5) Protein extracts were prepared from human surface epithelial cancer cells sonicated (8 s/cycle, 3 cycles) on ice in sucrose buffer (0.25 M sucrose, 0.025 M NaCl, 1 mM EGTA and 15 mM Tris-HCl pH 6.8, supplemented with 1 mM PMSF, 2 μg/ml of leupeptin and 5 μg/ml of aprotinin. The sonicates were centrifuged at 13,000×g for 10 min, the supernatants were collected and stored at −20° C. until electrophoretic analyses were performed. Protein concentration was determined by Bio-Rad Protein Assay. Proteins (10–30 μg) were resolved by one-dimensional SDS-PAGE, and electrophoretically transferred to nitrocellulose membrane. Membranes were blocked with 5% non-fat milk, and subsequently incubated with rabbit polyclonal antibody for IAP anti-human Hiap-2ΔE(960529; 1:1000 dilution), anti-human NAIP E1.0 (951015; 1:1000 dilution) or anti-human Xiap (1:1000 dilution) diluted in TBST (10 mM Tris-buffered saline, 0.1% Tween-20, pH 7.5) containing 5% milk. […]

[4] = tested on: HIAP-2 protein in C13 cells; assay: Western blot for HIAP-2 protein in C13 cells; assay type: cell-based, human
Protocol: as §1, §5

[5] = tested on: HIAP-2 mRNA in OV2008 cells; assay: Northern blot for HIAP-2 mRNA in OV2008 cells; assay type: cell-based, human
Protocol: as §1, §4

[6] = tested on: HIAP-2 protein in OV2008 cells; assay: Western blot for HIAP-2 protein in OV2008 cells; assay type: cell-based, human
Protocol: as §1, §5

[7] = tested on: XIAP protein in OV2008 cells; assay: Western blot for XIAP protein in OV2008 cells; assay type: cell-based, human
Protocol: as §1, §5

[8] = tested on: HeLa cells; assay: Apoptosis and 26 kDa xiap cleavage product (Western blot) in HeLa cells; assay type: cell-based, human; details: 18 hours; for 26 kDa xiap cleavage product: HeLa cells, cycloheximide 20 μg/ml, TNFα 1,000 U/ml, anti-Fas antibody 1 μg/ml; for apoptosis of HeLa cells: cycloheximide 20 μg/ml or TNFα 1,000 U/ml alone
Protocol: A 26 kDa xiap-reactive band was also observed under the following experimental conditions. Jurkat cells (a transformed human T cell line) were induced to undergo apoptosis by exposure to an anti-Fas antibody (1 μg/ml). Identical cultures of Jurkat cells were exposed either to: (1) anti-Fas antibody and cycloheximide (20 μg/ml), (2) tumor necrosis factor alpha (TNF-α, at 1,000 U/ml), or (3) TNF-α and cycloheximide (20 μg/ml). All cells were harvested 6 hours after treatment began. In addition, as a negative control, anti-Fas antibody was added to an extract after the cells were harvested. The cells were harvested in SDS sample buffer, electrophoresed on a 12.5% SDS polyacrylamide gel, and electroblotted onto PVDF membranes using standard methods. The membranes were immunostained with a rabbit polyclonal anti-xiap antibody at 1:1000 for 1 hour at room temperature. Following four 15 minute washes, a goat anti-rabbit antibody conjugated to horse-radish peroxidase was applied at room temperature for 1 hour. Unbound secondary antibody was washed away, and chemiluminescent detection of xiap protein was performed. […] In addition, a novel, approximately 26 kDa xiap-reactive band was also observed in apoptotic cell extracts, but not in the control, untreated cell extracts (FIG. 13).
Cleavage of xiap occurs in a variety of cell types, including other cancer cell lines such as HeLa. […] HeLa cells were treated with either: (1) cyclohexamide (20 μg/ml), (2) anti-Fas antibody (1 μg/ml), (3) anti-Fas antibody (1 μg/ml) and cyclohexamide (20 μg/ml), (4) TNFα (1,000 U/ml), or (5) TNFα (1,000 U/ml) and cyclohexamide (20 μg/ml). All cells were harvested 18 hours after treatment began. As above, anti-Fas antibody was added to an extract after the cells were harvested. HeLa cells were harvested, and the Western blot was probed under the same conditions as used to visualize xiap-reactive bands from Jurkat cell samples. A 26 kDa xiap band was again seen in the apoptotic cell preparations (FIG. 14). Furthermore, the degree of xiap cleavage correlated positively with cellular exposure to apoptotic triggers.
The time course over which the 26 kDa cleavage product accumulates was examined by treating HeLa and Jurkat cells with anti-Fas antibody (1 μg/ml) and harvesting them either immediately, or 1, 2, 3, 5, 10, or 22 hours after treatment. Protein extracts were prepared and Western blot analysis was performed as described above.

[9] = tested on: Cisplatin-resistant (C13) human ovarian epithelial cells; assay: Apoptosis (nuclear staining, DNA ladders, TUNEL) in cisplatin-resistant ovarian cancer cells; assay type: cell-based; details: TGFβ 20 ng/ml
Protocol: as §1, §2
as §3, with “Unincorporated nucleotides were removed with the Qiagen nucleotide removal kit and samples were resolved by Tris-acetate-EDTA agarose (1.8%) gel electrophoresis.” left out, “C. […]” for “C.”

N.N.[Cl][Pt][Cl] [Cisplatin, cisplatin]
incidence of apoptosis [1]: concentration-dependent increase

CC(=O)O[C@H]1C(=O)[C@@]2(C)[C@H]([C@H](OC(=O)c3ccccc3)[C@]3(O)C[C@H](OC(=O)[C@H](O)[C@@H](NC(=O)c4ccccc4)c4ccccc4)C(C)=C1C3(C)C)[C@]1(OC(C)=O)CO[C@@H]1C[C@@H]2O [Taxol]
suppression of HIAP-2 mRNA abundance ([2]; cisplatin-resistant cells, Taxol 0.2 μM): ineffective
XIAP protein level ([3]; C13 cells, Taxol 0.04-1.0 μM, concentration-dependent, less pronounced than in sensitive cells): decreased
content of approx. 45 kDa immunoreactive fragment of HIAP-2 ([4]; Taxol): increased
HIAP-2 protein level ([4]; Taxol 0.04-1.0 μM, concentration-dependent, less pronounced than in sensitive cells): decreased
suppression of HIAP-2 mRNA abundance ([5]; cisplatin-sensitive cells, Taxol 0.2 μM): approx. 80%
content of approx. 45 kDa immunoreactive fragment of HIAP-2 ([6]; Taxol): decreased
HIAP-2 protein level ([6]; Taxol 0.04-1.0 μM, concentration-dependent, more pronounced than in resistant cells): decreased
XIAP protein level ([7]; OV2008 cells, Taxol 0.04-1.0 μM, concentration-dependent, more pronounced than in resistant cells): decreased
incidence of apoptosis [1]: induced apoptosis

C[C@@H]1C[C@@H]([C@H](O)CC2CC(=O)NC(=O)C2)C(=O)[C@@H](C)C1 [cycloheximide]
26 kDa xiap cleavage product [8]: little cleavage product
apoptosis of HeLa cells [8]: only minor apoptosis

TGFβ: TGFβ (20 ng/ml) added to ovarian cancer cell cultures
HIAP-2 mRNA ([2]; C13 cells, TGFβ 20 ng/ml): not C13
influence on Xiap protein content ([3]; cisplatin-resistant cells, TGFβ 20 ng/ml): only marginal
induction of apoptosis [9]: not in C13
HIAP-2 mRNA ([5]; OV2008 cells, TGFβ 20 ng/ml): decreased
influence on Xiap protein content ([7]; cisplatin-sensitive cells, TGFβ 20 ng/ml): markedly suppressed
induction of apoptosis ([1]; TGFβ 20 ng/ml): induced apoptosis

TNFα
26 kDa xiap cleavage product [8]: little cleavage product
apoptosis of HeLa cells [8]: only minor apoptosis
